Assay results taken from patent US4112218A, “Method of preparing sterol glycosides from plants” (Nippon Shinyaku Co., Ltd., priority 1976, dated 1978).
Like-named read-outs stand apart in the source and are kept apart here.

What was measured:
[1] = test system: bleeding from the amputated tail end; assay: hemostatic effect, Motohashi et al. model: time until bleeding from amputated mouse tail tip in water is completely stopped; assay type: in vivo; settings: mice, tail tip amputation
pulmonary hemorrhage = pulmonary hemorrhage in mice under reduced pressure (scoring method; vascular stabilizing effect); assay type: in vivo; settings: Mus musculus, reduced pressure of 50 ± 0.5 mm Hg/15 sec

Compound: CN1C2=CC(=O)C(=NNC(N)=O)C=C2CC1S(=O)(=O)O (stereo not drawn) [Carbazochrome sodium sulfonate]
- ED50 ([1]; ip, read-out: ED50 i.p. (hemostatic effect)): 5.4 mg/kg
- ED50 ([1]; iv, read-out: ED50 i.v. (hemostatic effect)): 3.6 mg/kg
- ED50 ([1]; po, read-out: ED50 p.o. (hemostatic effect)): 36 mg/kg
- ED50 (pulmonary hemorrhage; ip, read-out: ED50 i.p. (pulmonary hemorrhage)): 112 mg/kg
- ED50 (pulmonary hemorrhage; iv, read-out: ED50 i.v. (pulmonary hemorrhage)): 80 mg/kg
- ED50 (pulmonary hemorrhage; po, read-out: ED50 p.o. (pulmonary hemorrhage)): 400 mg/kg
